Entries after “also recorded” stand apart in the source; their conditions may differ.
Key:
chow-fed mice = test: chronic PO fexaramine in normal chow-fed mice; assay type: in vivo
Method: FIGS. 3A-3D are line graphs and a bar graph showing the effects of fexaramine administration in normal chow-fed mice. The mice were treated with vehicle or fexaramine (100 mg/kg) via PO for 5 weeks. Data represent the mean±STD. Statistical analysis as performed with the Student's t test (*p<0.05, **p<0.01).
To investigate the physiological effects of intestinal FXR activation by fexaramine, mice were subjected to chronic fexaramine (100 mg/kg Fex) PO treatment for 5 weeks.

human TGR5 = target: T1, human TGR5 (Homo sapiens, UniProt Q8TDU6); test: TGR5 activation, cAMP-response element luciferase in HEK293 cells; assay type: cell-based; settings: 24 hours after transfection
T1 construct: expressed in transfected cells; host or cells: HEK293 cells
T1 sequence (Q8TDU6 1-330): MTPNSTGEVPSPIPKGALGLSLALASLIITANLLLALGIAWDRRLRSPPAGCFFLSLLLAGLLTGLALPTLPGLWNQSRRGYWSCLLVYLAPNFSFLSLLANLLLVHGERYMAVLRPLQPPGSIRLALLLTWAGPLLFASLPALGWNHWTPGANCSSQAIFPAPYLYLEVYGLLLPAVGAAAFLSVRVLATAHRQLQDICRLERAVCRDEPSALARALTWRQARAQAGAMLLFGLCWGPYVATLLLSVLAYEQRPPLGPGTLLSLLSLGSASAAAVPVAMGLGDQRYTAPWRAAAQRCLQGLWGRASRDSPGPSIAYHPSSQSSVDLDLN
Method: HEK293 cells were transfected with expression vectors for cAMP-response element luciferase, β-galactosidase and human TGR5. 24 hours after transfection, cells were treated with fexaramine or INT-777 (a TGR5 agonist).

[1] = test system: FXR target gene expression; test: FXR target gene expression (qPCR) in tissues after PO or IP fexaramine; assay type: in vivo, C57BL/6J mice; settings: for FXR target gene (SHP) expression in liver and kidney, IP versus PO / FXR target genes (IBABP, OSTα, FGF15) in the intestine / FXR target genes in liver or kidney: 100 mg/kg; for FXR target genes (IBABP, OSTα, FGF15) in the intestine / FXR target genes in liver or kidney: PO
Method: FIGS. 1A-1C are a comparative expression chart and two bar charts, respectively, illustrating increased levels of FXR target gene expression in the intestine relative to expression in the liver and kidney. 8 week-old C57BL/6J mice were treated with vehicle or fexaramine (100 mg/kg) via oral (PO) or intraperitoneal (IP) injection for three days (FIGS. 1A-1B) or five days (FIG. 1C).
FXR target gene expression was analyzed by qPCR. Gene expression was normalized against a vehicle-treated group.
Upon exploration of the in vivo effects of fexaramine (Fex) administration, it was discovered that due to ineffectual absorption, oral (PO) and intraperitoneal (IP) drug delivery produced very different effects (FIGS. 1D and 1E).

[2] = test system: pancreatic islets gene expression; test: RNA-Seq of pancreatic islets of treated ob/ob mice; assay type: in vivo; settings: fexaramine 100 mg/kg 5 weeks, analogs 50 mg/kg 2 weeks
Method: Pancreatic islets were isolated from ob/ob mice after daily treatment by oral gavage with fexaramine (100 mg/kg for 5 weeks), FEX-D (50 mg/kg for 2 weeks) or SALK110 (NSSK00110, 50 mg/kg for 2 weeks). Changes in gene expression were determined by RNA-Seq.

[3] = test system: diet-induced obesity (DIO) mice; test: chronic PO fexaramine in diet-induced obesity (DIO) mice; assay type: in vivo; settings: for glucose tolerance and insulin sensitivity (GTT, ITT): PO 5 weeks
Method: FIGS. 2A-2G are graphs illustrating the reduction of diet-induced obesity and improvement in metabolic homeostasis with fexaramine. […] Data represent the mean±STD. Statistical analysis was performed with the Student's t test (*p<0.05, **p<0.01).
The physiological effects of fexaramine in established obesity (diet-induced obesity, DIO) models were evaluated. […]

[4] = test system: serum bile acid composition; test: serum bile acid composition by mass spectrometry in HFD mice; assay type: in vivo; settings: 100 mg/kg/day per os 5 week
Method: Mice fed a HFD for 14 weeks were maintained on a HFD and treated with vehicle or fexaramine (100 mg/kg/day per os for 5 week). Serum bile acid composition was determined by mass spectrometry. N.D not determined.

In the case of COC(=O)/C=C/c1cccc(N(Cc2ccc(-c3ccc(N(C)C)cc3)cc2)C(=O)C2CCCCC2)c1 [Fexaramine, fexaramine], the “weight gain, basal metabolic activity and glucose tolerance” value (chow-fed mice; chow-fed mice, 100 mg/kg PO 5 weeks) is reported as “indistinguishable from vehicle-treated mice”, the glucose homeostasis (chow-fed mice; normal chow-fed mice, range of doses) is reported as “no effects observed” and the “activation of TGR5” value (human TGR5) is reported as “fails to activate TGR5”. For the same compound, the “activation of TGR5” value (human TGR5; listed as Fex) was “does not activate”, the “FXR target gene (SHP) expression in liver and kidney, IP versus PO” value [1] was “increases” and the “FXR target gene (SHP) expression in liver and kidney, IP versus PO” value ([1]; listed as Fex) was “only seen in liver and kidney after IP treatment”. For the same compound, the “FXR target genes (IBABP, OSTα, FGF15) in the intestine” value [1] was “substantially enhances”, the “FXR target genes in liver or kidney” value [1] was “intestinally-restricted; also recorded: not in the liver or kidney” and the “FXR target genes (IBABP, OSTα, FGF15) in the intestine” value ([1]; listed as Fex) was “induced multiple FXR target genes in the intestine”. For the same compound, the “FXR target genes in liver or kidney” value ([1]; listed as Fex) was “failed to affect”, the “induction of FXR target gene SHP throughout the intestine” value ([1]; acute PO and IP, 100 mg/kg for five days) was “robust induction” and the “gene induction in islets (intracellular signaling, insulin secretion, exocytosis)” value [2] was “induce a common set of genes”. For the same compound, the “BAT expression of ERRγ, PGC-1α, PGC-1β and target genes” value ([3]; DIO mice) was “induction”, the “PKA activity in BAT” value ([3]; DIO mice) was “increased PKA activity” and the “accumulation of lipid vesicles in brown adipose tissue (BAT)” value ([3]; DIO mice) was “markedly reduced”. The “activity (ambulatory counts)” value ([3]; DIO mice) was “more active than control mice”, the “bile acid pool size” value ([3]; DIO mice) was “reducing” and the “brown fat-like signature genes and respiratory capacity of stromal vascular fraction of inguinal adipose tissue” value ([3]; DIO mice) was “increased”. The “circulating FGF15” value ([3]; DIO mice) was “increase”, the “expression of TNFα, MCP-1, IL-1α and F4/80 in visceral and brown adipose depots” value ([3]; DIO mice) was “reduced” and the “fraction of lithocholic acid in circulating bile acids” value ([3]; DIO mice) was “increasing”. For the same compound, the “fraction of taurocholic acid in circulating bile acids” value ([3]; DIO mice) was “decreasing”, the “levels of IKK-ε and TBK1 in adipose tissue” value ([3]; DIO mice) was “reduced levels” and the “liver lipid droplets (histology)” value ([3]; DIO mice) was “reduction in lipid droplets”. For the same compound, the “mTORC1 pathway, S6K phosphorylation in gonadal WAT” value ([3]; DIO mice) was “reduced S6K phosphorylation”, the “phosphorylation level of p38 in BAT” value ([3]; DIO mice) was “increased” and the “ratio of unconjugated to conjugated cholic acid” value ([3]; DIO mice) was “remarkably increased”. For the same compound, the respiratory exchange ratio ([3]; DIO mice) was “No changes”, the “serum alanine aminotransferase (ALT) levels” value ([3]; DIO mice) was “decreased” and the serum lactate levels ([3]; DIO mice) was “significantly decreased”. The “glucose, insulin, leptin, cholesterol and resistin levels” value ([3]; DIO mice, 100 mg/kg PO 5 weeks) was “reduced”, the “increase of core body temperature” value ([3]; DIO mice, 100 mg/kg PO 5 weeks) was “approximately 1.5 °C” and the “overall fat mass (MRI)” value ([3]; DIO mice, 100 mg/kg PO 5 weeks) was “reduced overall fat mass”. For the same compound, the “serum inflammatory cytokines TNFα, IL-1α, IL-1β, IL-17 and MCP-1” value ([3]; DIO mice, 100 mg/kg PO 5 weeks) was “markedly decreased”, the weight gain ([3]; DIO mice, 100 mg/kg PO 5 weeks) was “prevented weight gain” and the “wet weights of subcutaneous and visceral adipose depots” value ([3]; DIO mice, 100 mg/kg PO 5 weeks) was “significant reductions”. The “prevention of weight gain over doses” value ([3]; DIO mice, 10, 50 or 100 mg/kg PO 5 weeks) was “dose-dependent manner”, the “glucose tolerance and insulin sensitivity (GTT, ITT)” value ([3]; DIO mice) was “improved glucose clearance; also recorded: improved insulin sensitivity” and the “glucose tolerance and insulin sensitivity (GTT, ITT)” value ([3]; DIO mice, listed as Fex) was “dose-dependent improvements”. The “FGF15 expression in ileum” value ([3]; DIO mice, RNA-Seq) was “dramatically upregulated”, the “OXPHOS gene changes in inguinal, gonadal and brown adipose depots” value ([3]; DIO mice, RNA-sequencing) was “selectively enhance OXPHOS activity only in BAT” and the “HSL phosphorylation and serum levels of free fatty acids” value ([3]; DIO mice, chronic treatment) was “pronounced increase”. For the same compound, the “cross-sectional area of adipocytes in visceral depots” value ([3]; DIO mice, chronic treatment) was “markedly reduced”, the “expression of mucosal defense genes Occludin and Muc2” value ([3]; DIO mice, chronic treatment) was “increased expression” and the “hepatic CYP7A1 expression (mRNA and protein)” value ([3]; DIO mice, chronic treatment) was “significantly repressed”. The “hepatic expression of CYP8B1 and CYP27A1” value ([3]; DIO mice, chronic treatment) was “not affected”, the “hepatic expression of gluconeogenic and lipogenic genes” value ([3]; DIO mice, chronic treatment) was “reduced” and the hepatic triglycerides ([3]; DIO mice, chronic treatment) was “marked decrease”. The “liver FXR target genes SHP and BSEP” value ([3]; DIO mice, chronic treatment) was “not altered”, the “serum catecholamine levels and β3-adrenergic receptor expression” value ([3]; DIO mice, chronic treatment) was “increased” and the “weight gain at the highest dose” value ([3]; DIO mice, highest dose) was “almost completely abrogated”. The “abundance of multi-locular, UCP1-expressing adipocytes in inguinal adipose tissue” value ([3]; DIO mice, immunohistochemistry) was “substantial increase”, the respiratory exchange ratio ([3]; DIO mice, listed as Fex) was “similar” and the serum lactate levels ([3]; DIO mice, listed as Fex) was “significantly reduced”. The food intake ([3]; DIO mice, versus vehicle) was “not attributable to difference in food intake”, the “carbon dioxide production (VCO2)” value ([3]; DIO mice, weight-matched) was “exhaled more carbon dioxide” and the “oxygen consumption (VO2)” value ([3]; DIO mice, weight-matched) was “consistently higher”. For the same compound, the “intestinal toxicity (histology of ileum and colon)” value ([3]; mouse, in vivo, po) was “no signs of intestinal toxicity”, the “Bile Acid Composition (%): CA” value [4] was 7.51% and the “Bile Acid Composition (%): CDCA” value [4] was 2.51%. The “Bile Acid Composition (%): DCA” value [4] was 7.67%, the “Bile Acid Composition (%): GLCA” value [4] was 0.51% and the “Bile Acid Composition (%): HDCA” value [4] was 0.36%. For the same compound, the “Bile Acid Composition (%): LCA” value [4] was 28.13%, the “Bile Acid Composition (%): T-UDCA” value [4] was 3.07% and the “Bile Acid Composition (%): T-beta MCA” value [4] was 29.16%. The “Bile Acid Composition (%): TCA” value [4] was 12.23%, the “Bile Acid Composition (%): TCDCA” value [4] was 1.13% and the “Bile Acid Composition (%): TDCA” value [4] was 1.02%. For the same compound, the “Bile Acid Composition (%): UDCA” value [4] was 0.05% and the “Bile Acid Composition (%): omega MCA” value [4] was 6.65%.

Source: US20190084939A1, “ANALOGS OF FEXARAMINE AND METHODS OF MAKING AND USING” (Salk Institute for Biological Studies, priority 2014, published 2019)
